Reference: patent publication US20230072860A1, “ISOXAZOLINE OXIME FORMATE COMPOUND, PREPARATION METHOD THEREFOR, HERBICIDAL COMPOSITION AND USE THEREOF” (QINGDAO KINGAGROOT CHEMICAL COMPOUND CO., LTD., priority 2020, published 2023)

Tests used:
Assay in all cases: Experiment on weeding effect in post-emergence stage
Type in all cases: in vivo
Settings in all cases: dose 15 g a.i./ha, fresh weight control rate level
Setaria viridis = test system: Setaria viridis
Source text: (§1) Experiment on weeding effect in post-emergence stage:
(§2) Monocotyledonous and dicotyledonous weed seeds (Descurainia sophia, Capsella bursa-pastoris, Abutilon theophrasti, Galium aparine, Stellaria media, Lithospermum arvense, Rorippa indica, Alopecurus aequalis, Alopecurus japonicus, Beckmannia syzigachne, Sclerochloa dura, Conyza Canadensis, Phleum paniculatum, Veronica didyma Tenore, Eleusine indica, Bromus japonicus, Aegilops tauschii, Phalaris arundinacea, Amaranthus retroflexus, Chenopodium album, Commelina communis, Sonchus arvensis, Convolvulus arvensis, Cirsium setosum, Solanum nigrum, Acalypha australis, Digitaria sanguinalis, Echinochloa crusgalli, Setaria viridis, Setaria glauca, Leptochloa chinensis, Monochoria vaginalis, Sagittaria trolia, Scirpus juncoides, Cyperus rotundus, Cyperus iria, Cyperus difformis, Elmbristylis, Portulaca oleracea, Xanthium sibiricum, Pharbitis nil) and major crop seeds (wheat, corn, rice, soybean, cotton, oilseed rape, millet, sorghum, potato, sesame, ricinus) were placed in plastic pots filled with soil, then covered with 0.5-2 cm of soil, allowed to grow in a good greenhouse environment. After 2 weeks of sowing, the test plants were treated in the 2-3 leaf stage. The tested compounds of the present invention were respectively dissolved in acetone, then added with Tween 80 and 1.5 liter/ha of emulsifiable concentrate of methyl oleate as synergist, diluted with a certain amount of water to obtain a solution with a certain concentration, and sprayed with a spray tower onto the plants. After the application, the plants were cultured for 3 weeks in the greenhouse, and then the experimental results of the weeding were counted. The doses of the used compounds were 500, 250, 125, 60, 15 g a.i./ha, and the averages were obtained by repeating for three times.

Veronica didyma Tenore = test system: Veronica didyma Tenore
Source text: as §1, §2

Echinochloa crusgalli = test system: Echinochloa crusgalli
Source text: as §1, §2

Amaranthus retroflexus = test system: Amaranthus retroflexus
Source text: as §1, §2

Leptochloa chinensis = test system: Leptochloa chinensis
Source text: as §1, §2

Abutilon theophrasti = test system: Abutilon theophrasti
Source text: as §1, §2

Eleusine indica = test system: Eleusine indica
Source text: as §1, §2

Galium aparine = test system: Galium aparine
Source text: as §1, §2

Digitaria sanguinalis = test system: Digitaria sanguinalis
Source text: as §1, §2

Row | SMILES | weeding effect in post-emergence stage, Setaria viridis (level) (Setaria viridis) | weeding effect in post-emergence stage, Veronica didyma Tenore (level) (Veronica didyma Tenore) | weeding effect in post-emergence stage, Echinochloa crusgalli (level) (Echinochloa crusgalli) | weeding effect in post-emergence stage, Amaranthus retroflexus (level) (Amaranthus retroflexus) | weeding effect in post-emergence stage, Leptochloa chinensis (level) (Leptochloa chinensis) | weeding effect in post-emergence stage, Abutilon theophrasti (level) (Abutilon theophrasti) | weeding effect in post-emergence stage, Eleusine indica (level) (Eleusine indica) | weeding effect in post-emergence stage, Galium aparine (level) (Galium aparine) | weeding effect in post-emergence stage, Digitaria sanguinalis (level) (Digitaria sanguinalis)
1 | CCC(CC)=NOC(=O)C1(C)CC(c2cc(-n3c(=O)n(C)c(=S)n(C)c3=S)c(F)cc2Cl)=NO1 (stereo not drawn) [Compound 60] | 5 (Level 5: growth control rate is above 85%) | 5 (Level 5: growth control rate is above 85%) | 5 (Level 5: growth control rate is above 85%) | 5 (Level 5: growth control rate is above 85%) | 5 (Level 5: growth control rate is above 85%) | 5 (Level 5: growth control rate is above 85%) | 5 (Level 5: growth control rate is above 85%) | 5 (Level 5: growth control rate is above 85%) | 5 (Level 5: growth control rate is above 85%)
2 | C/C(=N\OC(=O)C1(C)CC(c2cc(-n3c(=O)n(C)c(=S)n(C)c3=S)c(F)cc2Cl)=NO1)C1CC1 (stereo not drawn) [Compound 61] | 5 (Level 5: growth control rate is above 85%) | 5 (Level 5: growth control rate is above 85%) | 5 (Level 5: growth control rate is above 85%) | 5 (Level 5: growth control rate is above 85%) | 5 (Level 5: growth control rate is above 85%) | 5 (Level 5: growth control rate is above 85%) | 5 (Level 5: growth control rate is above 85%) | 5 (Level 5: growth control rate is above 85%) | 5 (Level 5: growth control rate is above 85%)
3 | CCO/C(C)=N/OC(=O)C1(C)CC(c2cc(-n3c(=O)n(C)c(=S)n(C)c3=S)c(F)cc2Cl)=NO1 (stereo not drawn) [Compound 67] | 5 (Level 5: growth control rate is above 85%) | 5 (Level 5: growth control rate is above 85%) | 5 (Level 5: growth control rate is above 85%) | 5 (Level 5: growth control rate is above 85%) | 5 (Level 5: growth control rate is above 85%) | 5 (Level 5: growth control rate is above 85%) | 5 (Level 5: growth control rate is above 85%) | 5 (Level 5: growth control rate is above 85%) | 5 (Level 5: growth control rate is above 85%)
4 | COC/C(C)=N/OC(=O)C1(C)CC(c2cc(-n3c(=O)n(C)c(=S)n(C)c3=S)c(F)cc2Cl)=NO1 (stereo not drawn) [Compound 68] | 5 (Level 5: growth control rate is above 85%) | 5 (Level 5: growth control rate is above 85%) | 5 (Level 5: growth control rate is above 85%) | 5 (Level 5: growth control rate is above 85%) | 5 (Level 5: growth control rate is above 85%) | 5 (Level 5: growth control rate is above 85%) | 5 (Level 5: growth control rate is above 85%) | 5 (Level 5: growth control rate is above 85%) | 5 (Level 5: growth control rate is above 85%)
5 | Cn1c(=S)n(C)c(=S)n(-c2cc(C3=NOC(C)(C(=O)O/N=C/c4ccccc4)C3)c(Cl)cc2F)c1=O (stereo not drawn) [Compound 69] | 5 (Level 5: growth control rate is above 85%) | 5 (Level 5: growth control rate is above 85%) | 5 (Level 5: growth control rate is above 85%) | 5 (Level 5: growth control rate is above 85%) | 5 (Level 5: growth control rate is above 85%) | 5 (Level 5: growth control rate is above 85%) | 5 (Level 5: growth control rate is above 85%) | 5 (Level 5: growth control rate is above 85%) | 5 (Level 5: growth control rate is above 85%)
6 | C/C(=N\OC(=O)C1(C)CC(c2cc(-n3c(=O)n(C)c(=S)n(C)c3=S)c(F)cc2Cl)=NO1)c1ccccc1 (stereo not drawn) [Compound 70] | 5 (Level 5: growth control rate is above 85%) | 5 (Level 5: growth control rate is above 85%) | 5 (Level 5: growth control rate is above 85%) | 5 (Level 5: growth control rate is above 85%) | 5 (Level 5: growth control rate is above 85%) | 5 (Level 5: growth control rate is above 85%) | 5 (Level 5: growth control rate is above 85%) | 5 (Level 5: growth control rate is above 85%) | 5 (Level 5: growth control rate is above 85%)
7 | Cn1c(=S)n(C)c(=S)n(-c2cc(C3=NOC(C)(C(=O)ON=C(c4ccccc4)c4ccccc4)C3)c(Cl)cc2F)c1=O (stereo not drawn) [Compound 71] | 5 (Level 5: growth control rate is above 85%) | 5 (Level 5: growth control rate is above 85%) | 5 (Level 5: growth control rate is above 85%) | 5 (Level 5: growth control rate is above 85%) | 5 (Level 5: growth control rate is above 85%) | 5 (Level 5: growth control rate is above 85%) | 5 (Level 5: growth control rate is above 85%) | 5 (Level 5: growth control rate is above 85%) | 5 (Level 5: growth control rate is above 85%)
8 | Cn1c(=S)n(C)c(=S)n(-c2cc(C3=NOC(C)(C(=O)ON=C4CCCC4)C3)c(Cl)cc2F)c1=O (stereo not drawn) [Compound 74] | 5 (Level 5: growth control rate is above 85%) | 5 (Level 5: growth control rate is above 85%) | 5 (Level 5: growth control rate is above 85%) | 5 (Level 5: growth control rate is above 85%) | 5 (Level 5: growth control rate is above 85%) | 5 (Level 5: growth control rate is above 85%) | 5 (Level 5: growth control rate is above 85%) | 5 (Level 5: growth control rate is above 85%) | 5 (Level 5: growth control rate is above 85%)
9 | CCOC(=O)C(C)=NOC(=O)C1(C)CC(c2cc(-n3c(=O)n(C)c(=S)n(C)c3=S)c(F)cc2Cl)=NO1 (stereo not drawn) [Compound 75] | 5 (Level 5: growth control rate is above 85%) | 5 (Level 5: growth control rate is above 85%) | 5 (Level 5: growth control rate is above 85%) | 5 (Level 5: growth control rate is above 85%) | 5 (Level 5: growth control rate is above 85%) | 5 (Level 5: growth control rate is above 85%) | 5 (Level 5: growth control rate is above 85%) | 5 (Level 5: growth control rate is above 85%) | 5 (Level 5: growth control rate is above 85%)
